Measured values from patent publication US20210189342A1, “COMPOSITIONS AND METHODS FOR MODULATING MONOCYTE AND MACROPHAGE INFLAMMATORY PHENOTYPES AND IMMUNOTHERAPY USES THEREOF” (Verseau Therapeutics, Inc., priority 2018, published 2021).

Assays:
Type in all cases: cell-based, human
[1] = system: peripheral blood mononuclear cells (PBMCs); conditions: SEB assay, 5 μg/ml, FIG. 5
dissociated tumors = assay: dissociated tumor assay; conditions: 10 ug/mL, 24 or 48 hrs, FIG. 8
From the text: One system used for this purpose was a dissociated tumor assay. Dissociated tumors contain all the various cell populations present in the tumor microenvironment, including, for example, tumor cells, immune cells, and support cells. These viable single cell suspensions are useful for many applications and allow for the normalization of cell number and composition within each replicate of an experiment. For performing dissociated tumor experiments upon acquisition of fresh tumor tissue (less than 24 hrs), surrounding fat, fibrous areas, and necrotic areas were removed from a tumor sample using scissors and scalpels. The tumor was cut into small pieces of 2-4 mm^3. The Tumor Dissociation Kit enzyme mix (MACS Miltenyi Biotec) was prepared according to the manufacturer's protocol. Tumor pieces and dissociation enzymes were transferred into 5 ml Snaplock Microcentrifuge tubes and the tissue was minced using a pair of straight scissors. Tubes were placed in a 37° C. shaker at 200-250 rpm for 45 minutes to 1 hour. At the end of the incubation time, the digested tumor was filtered through […] cell strainers into 50 mL Falcon™ conical centrifuge tubes. […] At the end of the study, cytokines/chemokines in the culture supernatant were measured using the Invitrogen™ Luminex™ Cytokine Human Magnetic 25-Plex Panel according to the manufacturer's instructions. […]

tumor tissue slices = assay: tumor tissue slice cultures; conditions: 10 ug/mL
From the text: A second system was used to further confirm the results of the dissociated tumor assays. Briefly, dissociated tumor assays have the advantage of being able to normalize the number of cells in every condition performed. They also have the potential downside of losing the tumor structure and non-cellular stromal components. […] Upon acquisition of fresh tumor tissue sample (less than 24 hrs), surrounding fat, fibrous, and necrotic areas were removed from the tumor sample as much as possible using scissors and scalpels. The tissue was embedded in the center of a tissue mold using 4% agarose. After solidifying, the agarose block was dislodged, and the mold was glued to a Leica VT1000 S microtome tissue holder and sectioned into 300 to 400 micron sections using the Leica VT1000 S microtome. […] At the end of the study, efficacy was evaluated by analyzing cytokine/chemokine amounts secreted into the culture supernatant measured using the Invitrogen™ Luminex™ Cytokine Human Magnetic 25-Plex Panel according to the manufacturer's instructions. […]

For pembrolizumab, the “T cell activity (IFNg production)” value ([1]; donor 2) was “no increase in T cell activity”, the “T cell-specific response as indicated by IFNg production” value ([1]; donor 5) was “increase in T cell-specific response” and the IFNg production (dissociated tumors) was “stimulating IFNg production”. For the same substance, the IL-10 production (dissociated tumors) was “induces immunosuppressive IL-10”, the cytokine response (tumor tissue slices; GI tumor, FIG. 9B) was “do not provide a response” and the “cytokine response (IFNg, TNFα)” value (tumor tissue slices; lung tumor, FIG. 9A) was “showed a response”.
